The values below come from patent US8088815B2, “Spiroindolinone pyrrolidines” (Hoffman-La Roche Inc., priority 2009, dated 2012).

This assay has as its target interaction between p53 and MDM2 proteins (Homo sapiens, UniProt Q00987). The assay is described as follows: HTRF assay of inhibition of the p53-MDM2 interaction (GST-MDM2 / biotinylated p53 peptide). As to conditions: recombinant GST-tagged MDM2 and biotinylated p53 peptide, bsa:0.02%. Format: binding. The protocol: The ability of the compounds to inhibit the interaction between p53 and MDM2 proteins was measured by an HTRF (homogeneous time-resolved fluorescence) assay in which recombinant GST-tagged MDM2 binds to a peptide that resembles the MDM2-interacting region of p53. Binding of GST-MDM2 protein and p53-peptide (biotinylated on its N-terminal end) is registered by the FRET (fluorescence resonance energy transfer) between Europium (Eu)-labeled anti-GST antibody and streptavidin-conjugated Allophycocyanin (APC).
Add 10 uL diluted compounds (1:5 dilution in reaction buffer) to each well, mix by shaking. Add 20 uL biotinylated p53 peptide (180 nM working solution) in reaction buffer to each well and mix on shaker. Incubate at 37° C. for 1 h. Add 20 uL streptavidin-APC and Eu-anti-GST antibody mixture (6 nM Eu-anti-GST and 60 nM streptavidin-APC working solution) in TBS buffer with 0.2% BSA, shake at room temperature for 30 minutes and read using a TRF-capable plate reader at
665 and 615 nm (Victor 5, Perkin ElmerWallac). If not specified, the reagents were purchased from Sigma Chemical Co.

Sequence of interaction between p53 and MDM2 proteins (Q00987 whole entry): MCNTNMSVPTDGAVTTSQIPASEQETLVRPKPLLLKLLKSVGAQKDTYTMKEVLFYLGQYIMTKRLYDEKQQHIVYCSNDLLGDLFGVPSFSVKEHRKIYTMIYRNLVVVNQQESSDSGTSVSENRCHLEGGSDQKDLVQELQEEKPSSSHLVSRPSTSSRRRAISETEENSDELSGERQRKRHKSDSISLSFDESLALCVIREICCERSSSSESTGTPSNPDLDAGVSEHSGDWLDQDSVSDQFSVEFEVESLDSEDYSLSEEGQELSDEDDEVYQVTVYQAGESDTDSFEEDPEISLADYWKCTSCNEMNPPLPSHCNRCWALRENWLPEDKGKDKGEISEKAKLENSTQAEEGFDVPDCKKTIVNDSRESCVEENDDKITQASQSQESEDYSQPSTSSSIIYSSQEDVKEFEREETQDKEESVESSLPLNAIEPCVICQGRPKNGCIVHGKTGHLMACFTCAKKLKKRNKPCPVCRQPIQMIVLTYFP

Take `CC(C)(C)C[C@@H]1N[C@@H](C(=O)Nc2ccc(F)cc2)[C@H](c2cccc(Cl)c2F)[C@]12C(=O)Nc1cc(Cl)ccc12` (racemic) [Example 13, rac-(2′S,3′R,4′S,5′R)-6-chloro-4′-(3-chloro-2-fluoro-phenyl)-2′-(2,2-dimethyl-propyl)-2-oxo-1,2-dihydro-spiro[indole-3,3′-pyrrolidine]-5′-carboxylic acid (4-fluoro-phenyl)-amide]: the IC50 stood at 19 nM. As for `CC(C)(C)C[C@@H]1N[C@@H](C(=O)Nc2ccc(C#N)s2)[C@H](c2cccc(Cl)c2F)[C@]12C(=O)Nc1cc(Cl)ccc12` (racemic) [Example 187, rac-(2′S,3′R,4′S,5′R)-6-chloro-4′-(3-chloro-2-fluoro-phenyl)-2′-(2,2-dimethyl-propyl)-2-oxo-1,2-dihydro-spiro[indole-3,3′-pyrrolidine]-5′-carboxylic acid (5-cyano-thiophen-2-yl)-amide], the IC50 came to 15 nM. Take `CCCCOc1cc(C(=O)O)ccc1NC(=O)[C@@H]1N[C@@H](CC(C)(C)C)[C@@]2(C(=O)Nc3cc(Cl)ccc32)[C@H]1c1cccc(Cl)c1F` (racemic) [Example 151, rac-3-butoxy-4-{[(2′S,3′R,4′S,5′R)-6-chloro-4′-(3-chloro-2-fluoro-phenyl)-2′-(2,2-dimethyl-propyl)-2-oxo-1,2-dihydro-spiro[indole-3,3′-pyrrolidine]-5′-carbonyl]amino}-benzoic acid]: the IC50 was 13 nM.

Consider `CC(C)(C)C[C@@H]1N[C@@H](C(=O)Nc2ccc(CCC(=O)O)cc2)[C@H](c2cccc(Cl)c2F)[C@]12C(=O)Nc1cc(Cl)ccc12` (racemic) [Example 209, rac-3-(4-{[(2′S,3′R,4′S,5′R)-6-chloro-4′-(3-chloro-2-fluoro-phenyl)-2′-(2,2-dimethyl-propyl)-2-oxo-1,2-dihydro-spiro[indole-3,3′-pyrrolidine]-5′-carbonyl]-amino}-phenyl)-propionic acid], for which the IC50 is 4 nM. With `CC(C)(C)C[C@@H]1N[C@@H](C(=O)Nc2ccc(C(N)=O)cc2)[C@H](c2ccc(F)c(Cl)c2)[C@]12C(=O)Nc1cc(Cl)ccc12` (racemic) [Example 84, rac-(2′S,3′R,4′R,5′R)-6-chloro-4′-(3-chloro-4-fluoro-phenyl)-2′-(2,2-dimethyl-propyl)-2-oxo-1,2-dihydro-spiro[indole-3,3′-pyrrolidine]-5′-carboxylic acid (4-carbamoyl-phenyl)-amide] the figure was 15 nM; with `COc1cc(C(N)=O)ccc1NC(=O)[C@@H]1N[C@@H](CC(C)(C)C)[C@@]2(C(=O)Nc3cc(Cl)ccc32)[C@H]1c1cccc(Cl)c1F` (racemic) [Example 59, rac-(2′S,3′R,4′S,5′R)-6-chloro-4′-(3-chloro-2-fluoro-phenyl)-2′-(2,2-dimethyl-propyl)-2-oxo-1,2-dihydro-spiro[indole-3,3′-pyrrolidine]-5′-carboxylic acid (4-carbamoyl-2-methoxy-phenyl)-amide], 14 nM. Regarding `CC(C)(C)C[C@@H]1N[C@@H](C(=O)Nc2ccc(C#N)cc2)[C@H](c2ccc(F)c(Cl)c2)[C@]12C(=O)Nc1cc(Cl)ccc12` (racemic) [Example 83, rac-(2′S,3′R,4′R,5′R)-6-chloro-4′-(3-chloro-4-fluoro-phenyl)-2′-(2,2-dimethyl-propyl)-2-oxo-1,2-dihydro-spiro[indole-3,3′-pyrrolidine]-5′-carboxylic acid (4-cyano-phenyl)-amide], the IC50 was determined as 34 nM. Consider `COc1cc(C#N)ccc1NC(=O)[C@@H]1N[C@@H](CC(C)(C)C)[C@@]2(C(=O)Nc3cc(Cl)c(F)cc32)[C@H]1c1cccc(Cl)c1F` (racemic) [Example 112, rac-(2′S,3′R,4′S,5′R)-6-chloro-4′-(3-chloro-2-fluoro-phenyl)-2′-(2,2-dimethyl-propyl)-5-fluoro-2-oxo-1,2-dihydro-spiro[indole-3,3′-pyrrolidine]-5′-carboxylic acid (4-cyano-2-methoxy-phenyl)-amide], for which the IC50 was 15 nM. As for `COc1cc(OCCS(C)(=O)=O)ccc1NC(=O)[C@@H]1N[C@@H](CC(C)(C)C)[C@@]2(C(=O)Nc3cc(Cl)ccc32)[C@H]1c1cccc(Cl)c1F` [Example 170, chiral (2′S,3′R,4′S,5′R)-6-chloro-4′-(3-chloro-2-fluoro-phenyl)-2′-(2,2-dimethyl-propyl)-2-oxo-1,2-dihydro-spiro[indole-3,3′-pyrrolidine]-5′-carboxylic acid [4-(2-methanesulfonyl-ethoxy)-2-methoxy-phenyl]-amide], the IC50 was 7 nM.

For the compound `CC(C)(C)C[C@@H]1N[C@@H](C(=O)Nc2ccc(C(N)=O)nc2)[C@H](c2cccc(Cl)c2F)[C@]12C(=O)Nc1cc(Cl)ccc12` (racemic) [Example 183, rac-(2′S,3′R,4′S,5′R)-6-chloro-4′-(3-chloro-2-fluoro-phenyl)-2′-(2,2-dimethyl-propyl)-2-oxo-1,2-dihydro-spiro[indole-3,3′-pyrrolidine]-5′-carboxylic acid (6-carbamoyl-pyridin-3-yl)-amide], the IC50 turned out to be 7 nM.

`CC(C)(C)C[C@@H]1N[C@@H](C(=O)Nc2ccc(C(N)=O)cc2)[C@H](c2cccc(Br)c2F)[C@]12C(=O)Nc1cc(Cl)ccc12` (racemic) [Example 99, rac-(2′S,3′R,4′S,5′R)-4′-(3-bromo-2-fluoro-phenyl)-6-chloro-2′-(2,2-dimethyl-propyl)-2-oxo-1,2-dihydro-spiro[indole-3,3′-pyrrolidine]-5′-carboxylic acid (4-carbamoyl-phenyl)-amide]: the IC50 stood at 18 nM. As for `CCCCOc1cc(C(N)=O)ccc1NC(=O)[C@@H]1N[C@@H](CC(C)(C)C)[C@@]2(C(=O)Nc3cc(Cl)ccc32)[C@H]1c1cccc(Cl)c1F` (racemic) [Example 152, rac-(2′S,3′R,4′S,5′R)-6-chloro-4′-(3-chloro-2-fluoro-phenyl)-2′-(2,2-dimethyl-propyl)-2-oxo-1,2-dihydro-spiro[indole-3,3′-pyrrolidine]-5′-carboxylic acid (2-butoxy-4-carbamoyl-phenyl)-amide], the IC50 came out at 11 nM. With `CC(C)(C)C[C@@H]1N[C@@H](C(=O)Nc2ccc(C#N)cc2)[C@H](c2cccc(Cl)c2)[C@]12C(=O)Nc1cc(Cl)ccc12` (racemic) [Example 64, rac-(2′S,3′R,4′R,5′R)-6-chloro-4′-(3-chloro-phenyl)-2′-(2,2-dimethyl-propyl)-2-oxo-1,2-dihydro-spiro[indole-3,3′-pyrrolidine]-5′-carboxylic acid (4-cyano-phenyl)-amide] the figure was 34 nM; with `COc1cc(N2CC(C)OC(C)C2)ccc1NC(=O)[C@@H]1N[C@@H](CC(C)(C)C)[C@@]2(C(=O)Nc3cc(Cl)ccc32)[C@H]1c1cccc(Cl)c1F` (mixture of isomers) [Example 144, rac-(2′S,3′R,4′S,5′R)-6-chloro-4′-(3-chloro-2-fluoro-phenyl)-2′-(2,2-dimethyl-propyl)-2-oxo-1,2-dihydro-spiro[indole-3,3′-pyrrolidine]-5′-carboxylic acid [4-(2,6-dimethyl-morpholin-4-yl)-2-methoxy-phenyl]-amide], 19 nM; with `CC(C)(C)C[C@@H]1N[C@@H](C(=O)Nc2ccc(NCC(=O)O)cc2)[C@H](c2cccc(Cl)c2F)[C@]12C(=O)Nc1cc(Cl)ccc12` (racemic) [Example 218, rac-(4-{[(2′S,3′R,4′S,5′R)-6-chloro-4′-(3-chloro-2-fluoro-phenyl)-2′-(2,2-dimethyl-propyl)-2-oxo-1,2-dihydro-spiro[indole-3,3′-pyrrolidine]-5′-carbonyl]amino}-phenylamino)-acetic acid], 16 nM. For the compound `Cn1ccc(NC(=O)[C@@H]2N[C@@H](CC(C)(C)C)[C@@]3(C(=O)Nc4cc(Cl)ccc43)[C@H]2c2cccc(Cl)c2F)cc1=O` (racemic) [Example 27, rac-(2′S,3′R,4′S,5′R)-6-chloro-4′-(3-chloro-2-fluoro-phenyl)-2′-(2,2-dimethyl-propyl)-2-oxo-1,2-dihydro-spiro[indole-3,3′-pyrrolidine]-5′-carboxylic acid (1-methyl-2-oxo-1,2-dihydro-pyridin-4-yl)-amide], the IC50 worked out at 17 nM. For the compound `COc1cc(C(N)=O)ccc1NC(=O)[C@@H]1N[C@@H](CC(C)(C)C)[C@@]2(C(=O)Nc3cc(Cl)ccc32)[C@H]1c1cc(F)cc(Cl)c1` [Example 148, chiral (2′S,3′R,4′R,5′R)-6-chloro-4′-(3-chloro-5-fluoro-phenyl)-2′-(2,2-dimethyl-propyl)-2-oxo-1,2-dihydro-spiro[indole-3,3′-pyrrolidine]-5′-carboxylic acid (4-carbamoyl-2-methoxy-phenyl)-amide], the IC50 was 5 nM. Consider `CC(C)(C)C[C@@H]1N[C@@H](C(=O)Nc2ccc(C#N)cc2)[C@H](c2cccc(Cl)c2F)[C@]12C(=O)Nc1cc(Cl)ccc12` [Example 137, chiral (2′S,3′R,4′S,5′R)-6-chloro-4′-(3-chloro-2-fluoro-phenyl)-2′-(2,2-dimethyl-propyl)-2-oxo-1,2-dihydro-spiro[indole-3,3′-pyrrolidine]-5′-carboxylic acid (4-cyano-phenyl)-amide], for which the IC50 is 5 nM. In the case of `CC(C)(C)C[C@@H]1N[C@@H](C(=O)Nc2ccc(Cl)cc2)[C@H](c2cccc(Cl)c2F)[C@]12C(=O)Nc1cc(Cl)ccc12` (racemic) [Example 21, rac-(2′S,3′R,4′S,5′R)-6-chloro-4′-(3-chloro-2-fluoro-phenyl)-2′-(2,2-dimethyl-propyl)-2-oxo-1,2-dihydro-spiro[indole-3,3′-pyrrolidine]-5′-carboxylic acid (4-chloro-phenyl)-amide], the IC50 was determined as 19 nM.
